Marks after values point to notes of the source that are not given here. Where no end group is shown, it is not given here.
Assays:
IL-23, human PBMC = test: IL-23 in supernatants of human PBMC, ELISA; format: cell-based
Procedure: Peripheral blood was drawn from healthy volunteers (with approval from the relevant ethical committee in Denmark). Heparinized blood was diluted 1/1 v/v with RPMI and were subjected to Ficoll density centrifugation within 2 h of drawing. Plasma was collected from the top from individual donors and was kept on ice until it was used at 2% in the culture medium (autologous culture medium). Isolated PBMC were resuspended in autologous culture medium and seeded in 96-well culture plates with 255.000 cells per well in a total of 200 μl. […] The concentrations used for stimulation were optimized on 3 different donors in initial experiments, for LPS two different concentrations were used to be sure to be on a cytokine level that is possible to modulate. In some experiments PBMC were treated with Dexamethason and Indomethacin alone and together with LPS or LTA as a control on downregulation of inflammatory cytokines. The supernatants were collected after incubation at 37° C. for 24 hours, and stored at −80° C. until cytokine measurement. Viability was measured by Alamar Blue (Biosource, DALL 1100) in all experiments and in some cases also by MTS (Promega) according to manufacturer's instruction and was in some experiments also judged by counting of the cells by a Nucleocounter. […]
(§1) Cell culture supernatants were collected and stored at −80° C. Amounts of IL-23 was measured by standard sandwich ELISA using commercially available antibodies and standards according to the manufacturer's protocols (eBioscience).

[1] = system: IL-23, human CD14+ monocyte-derived dendritic cells; test: IL-23 in supernatants of human CD14+ monocyte-derived dendritic cells, ELISA; format: cell-based; details: Dexamethasone 1 μM
Procedure: The DCs were prepared according to a modified protocol originally described by Romani et al. Briefly, peripheral blood mononuclear cells (PBMCs) were purified from buffy coats of healthy donors by centrifugation over a Ficoll-pague (GE-healthcare) gradient. Monocytes were isolated from PBMC by positive selection of CD14+ cells by magnetic beads (Dynal, Invitrogen) according to the manufacturer's instructions. The CD14+ monocytes were cultured in 6-well plates in RPMI/2% Human AB Serum recombinant human recombinant granulocyte-macrophage colony-stimulating factor (GM-CSF, 20 ng/ml) and IL-4 (20 ng/ml) (PeproTech) for 6 days, replenishing the medium/cytokines after 2 and 5 days.
as §1

[2] = system: collagen-induced arthritis (CIA) in the mouse; test: Collagen-induced rheumatoid arthritis model, clinical arthritis score; format: in vivo; set-up: key: each paw scored 0-4 by ascending severity; total summed over paws; details: Group B, 1 mg/kg IP once daily
Procedure: All animals were subjected on Day 0 of the study (study commencement) to an intradermal injection into the tail of 0.1 ml Type II Collagen/CFA emulsion (200 μg collagen per mouse) under light Isoflurane anesthesia, using a plastic syringe. The location of injection was at an approximate caudal distance of about 1 cm from the base of the tail. A collagen challenge (200 μg/mouse) was presented to the animals by IP injection of collagen and PBS on Day 21.
Treatments were commenced on day 14 of the study and continued once daily throughout. All surviving mice were terminated on study day 42.
Mice were examined for signs of arthritogenic responses in peripheral joints on study day 0, 14, 21 and thereafter five times weekly until termination of the study. Arthritis reactions were reported for each paw according to a 0-4 scale in ascending order of severity as shown below:
In accordance with Home Office regulations mice with a total clinical score of equal to or greater than 12 were culled due to arthritis severity. The clinical score of these mice at termination was carried forward in the analysis for the remainder of the study in order that the data was not artificially skewed by the removal of high scoring mice.

[3] = system: IL-10 production from human peripheral blood mononuclear cells (PBMC); test: IL-10 production from human PBMC, Cytometric Bead Array; format: cell-based; details: concentration of control compound not given, Table 17
Procedure: (§2) Peripheral blood was drawn from healthy volunteers (with approval from the relevant ethical committee in Denmark). Heparinized blood was diluted 1/1 v/v with RPMI and were subjected to Ficoll density centrifugation within 2 h of drawing. Plasma was collected from the top from individual donors and was kept on ice until it was used at 2% in the culture medium (autologous culture medium). Isolated PBMC were resuspended in autologous culture medium and seeded in 96-well culture plates with 255.000 cells per well in a total of 200 μl. […] The concentrations used for stimulation were optimized on 3 different donors in initial experiments, for LPS two different concentrations were used to be sure to be on a cytokine level that is possible to modulate. In some experiments PBMC were treated with Dexamethason and Indomethacin alone and together with LPS or LTA as a control on downregulation of inflammatory cytokines. The supernatants were collected after incubation at 37° C. for 24 hours, and stored at −80° C. until cytokine measurement. Viability was measured by Alamar Blue (Biosource, DALL 1100) in all experiments and in some cases also by MTS (Promega) according to manufacturer's instruction and was in some experiments also judged by counting of the cells by a Nucleocounter.
(§3) Cytokine production in supernatants was measured by flow cytometry with a human inflammation cytometric bead array (CBA) according to manufacturer's instructions (BD) on a FACSarray flow cytometer. The following cytokines were measured: IL-8, IL-1β, IL-10, TNF, IL-12 p70, IL-6. In some experiments, cytokines were measured by ELISA kits from R&D systems (IL-10, TNF-α, IL-1β) according to the manufacturer' instruction.

[4] = system: IL-1β production from human peripheral blood mononuclear cells (PBMC); test: IL-1β production from human PBMC, Cytometric Bead Array; format: cell-based; details: concentration of control compound not given, Table 18
Procedure: as §2, §3

[5] = system: TNF production from mouse peripheral blood mononuclear cells (PBMC); test: TNF production from mouse PBMC, Cytometric Bead Array; format: cell-based
Procedure: Mouse peripheral blood mononuclear cells were isolated from blood of ten NMRI mice. In short, heparinized blood was diluted 1/1 v/v with RPMI and subjected to Ficoll density centrifugation within 2 h of drawing. Plasma was collected from the top and discarded. Isolated PBMC were resuspended in culture medium (RPMI 1640 (Gibco, 42401) w/1% penicillin and streptomycin and 1% L-Glutamine) and seeded in 96-well culture plates with 115.500 cells per well in a total of 200 μl. […] The supernatants were collected after incubation at 37° C. for 24 hours, and stored at −80° C. until cytokine measurement.
Cytokine production in supernatants was measured by flow cytometry with a mouse inflammation cytometric bead array (CBA) according to manufacturer's instructions (BD) on a FACSarray flow cytometer.

[6] = system: TNF production from human peripheral blood mononuclear cells (PBMC); test: TNF production from human PBMC, Cytometric Bead Array; format: cell-based
Procedure: as §2, §3

[7] = LPS 20 ng/ml, treatment 1 μg/ml
[8] = LPS 0.6 ng/ml, concentration of control compound not given, Table 16
[9] = LPS 20 ng/ml, concentration of control compound not given, Table 16
[10] = LPS 20 ng/ml, treatment 1 μg/ml, Table 21
[11] = Medium, treatment 1 μg/ml, Table 21

C[C@@H]1C[C@H]2[C@@H]3CCC4=CC(=O)C=C[C@]4(C)[C@@]3(F)[C@@H](O)C[C@]2(C)[C@@]1(O)C(=O)CO [Dexamethasone, reference compound]
IL-23 (IL-23, human PBMC; Control (medium), treatment 3.5 ng/ml): 222 pg/mL | IL-23 (IL-23, human PBMC; LTA 5 μg/ml, treatment 3.5 ng/ml): 223 pg/mL | IL-23 ([1]; LPS (100 ng/ml) and IFN-γ (20 ng/ml)): 1147 pg/mL | IL-23 ([1]; Unstimulated): 424 pg/mL | Mean Arthritic Score ([2]; Study Day 0): 0.0 | Mean Arthritic Score ([2]; Study Day 14): 0.4 | Mean Arthritic Score ([2]; Study Day 21): 0.0 | Mean Arthritic Score ([2]; Study Day 22): 0.0 | Mean Arthritic Score ([2]; Study Day 23): 0.0 | Mean Arthritic Score ([2]; Study Day 26): 0.0* | Mean Arthritic Score ([2]; Study Day 27): 0.0* | Mean Arthritic Score ([2]; Study Day 28): 0.0* | Mean Arthritic Score ([2]; Study Day 29): 0.0* | Mean Arthritic Score ([2]; Study Day 30): 0.0* | Mean Arthritic Score ([2]; Study Day 33): 0.0* | Mean Arthritic Score ([2]; Study Day 34): 0.0* | Mean Arthritic Score ([2]; Study Day 35): 0.0* | Mean Arthritic Score ([2]; Study Day 36): 0.0* | Mean Arthritic Score ([2]; Study Day 37): 0.0* | Mean Arthritic Score ([2]; Study Day 40): 0.0* | Mean Arthritic Score ([2]; Study Day 41): 0.0* | IL-10 % of control ([3]; LPS 0.6 ng/ml): 70% | IL-10 % of control ([3]; LPS 20 ng/ml): 67% | IL-1β % of control ([4]; LPS 0.6 ng/ml): 14% | IL-1β % of control ([4]; LPS 20 ng/ml): 44% | TNF ([5]; LPS 20 ng/ml, treatment 3.5 ng/ml): 328 pg/mL

Infliximab: antibody which binds to TNF-alpha (Remicade), positive control [reference compound]
IL-23 (IL-23, human PBMC; Control (medium), treatment 1 μg/ml): 227 pg/mL | IL-23 (IL-23, human PBMC; LPS 0.6 ng/ml, treatment 1 μg/ml): 356 pg/mL | IL-23 (IL-23, human PBMC; [7]): 373 pg/mL | IL-23 (IL-23, human PBMC; LTA 5 μg/ml, treatment 1 μg/ml): 349 pg/mL | IL-10 ([3]; LPS 0.6 ng/ml): 46 pg/mL | IL-10 % of control ([3]; LPS 0.6 ng/ml): 69% | IL-10 ([3]; LPS 20 ng/ml): 63 pg/mL | IL-10 % of control ([3]; LPS 20 ng/ml): 56% | IL-10 ([3]; Medium): 0 pg/mL | IL-1β ([4]; LPS 0.6 ng/ml): 636 pg/mL | IL-1β % of control ([4]; LPS 0.6 ng/ml): 86% | IL-1β ([4]; LPS 20 ng/ml): 2704 pg/mL | IL-1β % of control ([4]; LPS 20 ng/ml): 106% | IL-1β ([4]; Medium): 0 pg/mL | TNF [6, 8]: 0 pg/mL | TNF % of control [6, 8]: 0% | TNF [6, 9]: 0 pg/mL | TNF % of control [6, 9]: 0% | TNF [6, 10]: 1 pg/mL | TNF ([6]; Medium, concentration of control compound not given, Table 16): 0 pg/mL | TNF [6, 11]: 0 pg/mL | TNF [5, 7]: 2119 pg/mL | TNF ([5]; Medium, treatment 1 μg/ml): 530 pg/mL

mBD3: mouse beta defensin 3, SEQ ID NO:6; produced recombinantly by the hBD2 protocol (KINNPVSCLRKGGRCWNRCIGNTRQIGSCGVPFLKCCKRK; ends and bridges not checked; cysteine pairing not given here; listed as Mus musculus)
TNF [6, 10]: 384 pg/mL | TNF ([6]; LPS 20 ng/ml, treatment 10 μg/ml, Table 21): 51 pg/mL | TNF ([6]; LPS 20 ng/ml, treatment 100 μg/ml, Table 21): 166 pg/mL | TNF [6, 11]: 2 pg/mL | TNF ([6]; Medium, treatment 10 μg/ml, Table 21): 2 pg/mL | TNF ([6]; Medium, treatment 100 μg/ml, Table 21): 39 pg/mL | TNF [5, 7]: 1600 pg/mL | TNF ([5]; LPS 20 ng/ml, treatment 10 μg/ml): 297 pg/mL | TNF ([5]; LPS 20 ng/ml, treatment 100 μg/ml): 195 pg/mL | TNF ([5]; Medium, treatment 1 μg/ml): 347 pg/mL | TNF ([5]; Medium, treatment 10 μg/ml): 180 pg/mL | TNF ([5]; Medium, treatment 100 μg/ml): 182 pg/mL

— patent publication US20100016232A1, “Treatment Of Inflammatory Diseases With Mammal Beta Defensins” (Novozymes A/S, priority 2008, published 2010)
